One data set deals with P. aeruginosa 14 (14). Put plainly: MIC of MEM with and without ML302F (1:8), VIM-2 producer. It counts as cell-based. The settings on record: Pseudomonas aeruginosa; P. aeruginosa 14 (14) (VIM-2); MEM alone or with ML302F (1:8). How it is done:
(§1) In a further study, antimicrobial activities of MEM and ML302F alone and in combination were assessed in-vitro against 31 VIM-producing clinical isolates.

A further data set relates to P. aeruginosa GR62. The data set is described as above. It counts as cell-based. The settings on record: Pseudomonas aeruginosa; P. aeruginosa GR62 (VIM-2); MEM alone or with ML302F (1:8). How it is done: as §1
A further data set relates to P. aeruginosa GR58. Described as above. It counts as cell-based. Conditions: Pseudomonas aeruginosa; P. aeruginosa GR58 (VIM-2); MEM alone or with ML302F (1:8). The method, then: as §1
The subject of a further data set is P. aeruginosa 6 (14). The data set is described as above. Conditions: Pseudomonas aeruginosa. It counts as cell-based. The method, then:
as §1

The test system of the next data set is P. aeruginosa 13 (14). Described as above. The settings on record: Pseudomonas aeruginosa; P. aeruginosa 13 (14) (VIM-2); MEM alone or with ML302F (1:8). It counts as cell-based. The method, then: as §1
Another data set deals with P. aeruginosa 11 (13). The description is as above. Conditions: Pseudomonas aeruginosa; P. aeruginosa 11 (13) (VIM-2); MEM alone or with ML302F (1:8). It counts as cell-based. How it is done:
as §1

The test system of the next data set is K. pneumoniae 177. Put plainly: MIC of MEM with and without ML302F (1:8), VIM-1 producer. It counts as cell-based. Conditions: Klebsiella pneumoniae; K. pneumoniae 177 (VIM-1); MEM alone or with ML302F (1:8). The method, then:
as §1

The subject of a further data set is P.. stuartii 67. Described as above. It counts as cell-based. Conditions: Providencia stuartii; P. stuartii 67 (VIM-1); MEM alone or with ML302F (1:8). The method, then:
as §1

A further data set concerns K. pneumoniae GR54. Described as above. It counts as cell-based. Conditions: Klebsiella pneumoniae. The method, then:
as §1

A further data set has as its system P. stuartii 70. Described as above. Conditions: Providencia stuartii; P. stuartii 70 (VIM-1); MEM alone or with ML302F (1:8). It counts as cell-based. How it is done:
as §1

In the next data set the test system is P. aeruginosa GR57. Put plainly: MEM/ML302F treatment assay in infected G. mellonella larvae. It counts as in vivo. Conditions: PA GR57 infection; 96 hrs; MEM 0.6 mg/kg, ML302F 4.8 mg/kg, alone or combined (1:8). The method, then:
(§2) The activity of MEM and ML302F alone and in combination were assessed using 16 G. mellonella larva as described by M. Hornsey and D. W. Wareham (Antimicrob. Agents Chemother., 2011, 55(7), 3534-3537). Larvae were inoculated with P. aeruginosa GR57, E. coli EC98 and K. pneumoniae KP120. In combination therapies, a fixed ratio (1:8) of MEM:ML302F containing 0.6 mg/Kg of MEM8 and 4.8 mg/Kg of ML302F was administered in 10 μL injections to infected larvae. PBS injections (10 μL) were used as both controls for no antimicrobial therapy and inoculation injury. Larvae were scored for survival over 96 hrs and kill curves analysed by the log-rank test for trend. Relative risk (RR) of survival between the different treatment arms was calculated using Fisher's exact test with, two-tailed P-values of <0.05 considered statistically significant.

Another data set relates to K. pneumoniae KP120. Described as above. It counts as in vivo. The settings on record: KP 120 infection; 96 hrs; MEM 0.6 mg/kg, ML302F 4.8 mg/kg, alone or combined (1:8). How it is done:
as §2

Another data set concerns E. coli EC98. The description is as above. It counts as in vivo. Conditions: EC 98 infection; 96 hrs; MEM 0.6 mg/kg, ML302F 4.8 mg/kg, alone or combined (1:8). The method, then: as §2
Another data set relates to K. oxytoca 126. Put plainly: MIC of MEM with and without ML302F (1:8), VIM-4 producer. The settings on record: Klebsiella oxytoca; K. oxytoca 126 (VIM-4); MEM alone or with ML302F (1:8). It counts as cell-based. How it is done:
as §1

For a further data set, the system named is K. oxytoca 95. The description is as above. The settings on record: Klebsiella oxytoca; K. oxytoca 95 (VIM-4); MEM alone or with ML302F (1:8). It counts as cell-based. How it is done:
as §1

For the next data set, the system named is K. pneumoniae 120. Described as above. Conditions: Klebsiella pneumoniae; K. pneumoniae 120 (VIM-4); MEM alone or with ML302F (1:8). It counts as cell-based. The method, then: as §1
For a further data set, the system named is K. pneumoniae 128. Described as above. It counts as cell-based. Conditions: Klebsiella pneumoniae; K. pneumoniae 128 (VIM-4); MEM alone or with ML302F (1:8). How it is done: as §1
The subject of another data set is K. pneumoniae 196. The description is as above. It counts as cell-based. Conditions: Klebsiella pneumoniae; K. pneumoniae 196 (VIM-4); MEM alone or with ML302F (1:8). The method, then:
as §1

The subject of another data set is E. cloacae 102. The data set is described as above. It counts as cell-based. The settings on record: Enterobacter cloacae; E. cloacae 102 (VIM-4); MEM alone or with ML302F (1:8). How it is done:
as §1

A further data set deals with K. pneumoniae 101. The data set is described as above. It counts as cell-based. Conditions: Klebsiella pneumoniae; K. pneumoniae 101 (VIM-4); MEM alone or with ML302F (1:8). The method, then:
as §1

The subject of another data set is E. coli 98. The data set is described as above. It counts as cell-based. Conditions: Escherichia coli; E. coli 98 (VIM-4); MEM alone or with ML302F (1:8). How it is done:
as §1

The next data set concerns the target T1, VIM-2 (Escherichia coli, UniProt Q5U7L7).
T1 construct: made in house; host or cells: Escherichia coli
Conditions: Spicer et al, NIH Probe Reports 2010, read-out: IC50 against VIM-2, reported value; cited from earlier work.

The subject of data set [1] is Galleria mellonella wax moth larvae. The data set is described as follows: In vivo toxicity in wax moth larvae model. Conditions: doses up to 80 mg/kg.

Structures are written as SMILES.

As a reminder, the MIC is the smallest concentration in the dilution series that meets the test's criterion for growth inhibition. Take `C[C@@H](O)[C@H]1C(=O)N2C(C(=O)O)=C(S[C@@H]3CN[C@H](C(=O)N(C)C)C3)[C@H](C)[C@H]12` [Meropenem, meropenem]: the MIC in the data set on P. aeruginosa 14 (14) came out at 64 µg/mL; with P. aeruginosa GR62, 32 µg/mL; in the data set with P. aeruginosa GR58, 32 µg/mL; in the data set with P. aeruginosa 6 (14), 128 µg/mL; with P. aeruginosa 13 (14), 32 µg/mL; in the data set with P. aeruginosa 11 (13), 32 µg/mL. The minimum inhibitory concentration (MIC) turned out to be 1 µg/mL with K. pneumoniae 177; 8 µg/mL in the data set with P.. stuartii 67; 128 µg/mL with K. pneumoniae GR54; 8 µg/mL in the data set on P. stuartii 70; 32 µg/mL in the data set with K. oxytoca 126; 32 µg/mL in the data set on K. oxytoca 95. Besides, the MIC in the data set on K. pneumoniae 120 was 16 µg/mL; in the data set with K. pneumoniae 128, 4 µg/mL; with K. pneumoniae 196, 16 µg/mL; in the data set on E. cloacae 102, 32 µg/mL; in the data set with K. pneumoniae 101 it was 32 µg/mL; in the data set with E. coli 98, 16 µg/mL. In addition, the entries for the “% survival of infected larvae” value in the data set with P. aeruginosa GR57, in the data set with K. pneumoniae KP120 and in the data set on E. coli EC98 were 23%, 69% and 44%, respectively.
A word on the IC50: it is the midpoint of a concentration-inhibition curve. For `CN1CCN(NC(=O)CN2C(=O)C(=Cc3c(Cl)ccc(Cl)c3Cl)SC2=S)CC1` (mixture of isomers) [ML302, N-(4-Methylpiperazin-1-yl)-2-(4-oxo-2-thioxo-5-(2,3,6-trichlorobenzylidene)thiazolidin-3-yl)acetamide], the half-maximal inhibitory concentration (IC50) on VIM-2 was 548 nM.
Consider `O=C(O)C(S)=Cc1c(Cl)ccc(Cl)c1Cl` (racemic) [ML302F, 2-Mercapto-3-(2,3,6-trichlorophenyl)acrylic acid], for which the In vivo toxicity result in data set [1] (G. mellonella, injection) is “non-toxic”. In data set [1] (injection into hemocoel, at 96 hrs), the “Survival of all larvae” value is 100%.

The values are drawn from patent US10351525B2, “Beta lactamase inhibitors” (Oxford University Innovation Limited, priority 2014, dated 2019).
